Reference: patent US12473304B2, “Heterocyclic PAD4 inhibitors” (BRISTOL-MYERS SQUIBB COMPANY, priority 2020, dated 2025)

target: human PAD4 (hPAD4) (Homo sapiens (Human), UniProt Q9UM07); experiment: RFMS Human PAD4 Functional Assay 1; format: biochemical; details: RFMS assay 1; 5 nM hPAD4, 250 μM BAEE substrate, 50 μM calcium, 37° C.
In short: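 Citrullination product read by RapidFire triple-quad MRM against a modified-citrulline internal standard, after TCA stop and 30 min phenyl glyoxal step at 37 °C. Reaction: 250 μM BAEE, 5 nM human PAD4, 90 min at 37 °C, pH 7.5 HEPES buffer with 50 μM calcium and 5 μM TPEN, following 30 min compound–enzyme preincubation (max 50 μM).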

human PAD4 (hPAD4), sequence (Q9UM07 whole entry): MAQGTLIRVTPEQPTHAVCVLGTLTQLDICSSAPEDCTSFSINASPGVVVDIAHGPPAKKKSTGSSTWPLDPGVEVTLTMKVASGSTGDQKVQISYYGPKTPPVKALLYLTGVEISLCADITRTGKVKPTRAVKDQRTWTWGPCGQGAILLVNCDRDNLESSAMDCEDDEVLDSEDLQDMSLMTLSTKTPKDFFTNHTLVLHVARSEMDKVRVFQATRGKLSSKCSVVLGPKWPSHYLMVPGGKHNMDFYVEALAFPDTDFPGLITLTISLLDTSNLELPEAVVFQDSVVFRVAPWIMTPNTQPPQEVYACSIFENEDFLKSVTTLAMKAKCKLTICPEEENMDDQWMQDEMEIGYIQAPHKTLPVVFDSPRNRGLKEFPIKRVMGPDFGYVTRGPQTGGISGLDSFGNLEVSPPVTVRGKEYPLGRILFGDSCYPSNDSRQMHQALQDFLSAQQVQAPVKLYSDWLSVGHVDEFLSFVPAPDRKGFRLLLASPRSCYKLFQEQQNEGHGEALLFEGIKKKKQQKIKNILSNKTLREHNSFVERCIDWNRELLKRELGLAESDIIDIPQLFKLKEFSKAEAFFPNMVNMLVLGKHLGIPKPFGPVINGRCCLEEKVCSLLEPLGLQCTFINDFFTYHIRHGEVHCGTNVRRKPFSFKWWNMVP

Structure (SMILES) | IC50 [nM]
Cc1c(-c2cc3ccc(-c4ccc5c(c4)C(=O)NC5)nc3n2CC2CC2)nn2cc(C(=O)N3CC4CCC3[C@@H]4N)cnc12 (stereo partly drawn) [Example 110, 6-(2-(6-((7R)-7-Amino-2-azabicyclo[2.2.1]heptane-2-carbonyl)-3-methylpyrazolo[1,5-a]pyrimidin-2-yl)-1-(cyclopropylmethyl)-1H-pyrrolo[2,3-b]pyridin-6-yl)isoindolin-1-one] | 1040
COc1nc(C(=O)N2CC3CCC2[C@@H]3N)cn2nc(-c3cc4ccccc4n3CC3CC3)c(C)c12 (stereo partly drawn) [Example 113, ((7R)-7-Amino-2-azabicyclo[2.2.1]heptan-2-yl)(2-(1-(cyclopropylmethyl)-1H-indol-2-yl)-4-methoxy-3-methylpyrazolo[1,5-a]pyrazin-6-yl)methanone] | 283
COc1nc(C(=O)N2CC3(CNC3)C2)cn2nc(-c3cc4cccnc4n3CC3CC3)c(C)c12 [Example 116, (2-(1-(Cyclopropylmethyl)-1H-pyrrolo[2,3-b]pyridin-2-yl)-4-methoxy-3-methylpyrazolo[1,5-a]pyrazin-6-yl)(2,6-diazaspiro[3.3]heptan-2-yl)methanone] | 22800
COc1nc(C(=O)NC[C@H](F)CN)cn2nc(-c3cc4cccnc4n3CC3CC3)c(C)c12 [Example 117, (R)-N-(3-Amino-2-fluoropropyl)-2-(1-(cyclopropylmethyl)-1H-pyrrolo[2,3-b]pyridin-2-yl)-4-methoxy-3-methylpyrazolo[1,5-a]pyrazine-6-carboxamide] | 15000
COc1cc(C(=O)N2CC3CCC2[C@@H]3N)cc2sc(-c3cc4ccccc4n3CC3CC3)c(C)c12 (stereo partly drawn) [Example 118, ((7R)-7-Amino-2-azabicyclo[2.2.1]heptan-2-yl)(2-(1-(cyclopropylmethyl)-1H-indol-2-yl)-4-methoxy-3-methylbenzo[b]thiophen-6-yl)methanone] | 157
COc1cc(C(=O)N2CC3CCC2[C@@H]3N)cc2sc(-c3cc4cccnc4n3CC3CC3)c(C)c12 (stereo partly drawn) [Example 119, ((7R)-7-Amino-2-azabicyclo[2.2.1]heptan-2-yl)(2-(1-(cyclopropylmethyl)-1H-pyrrolo[2,3-b]pyridin-2-yl)-4-methoxy-3-methylbenzo[b]thiophen-6-yl)methanone] | 84
COc1cc(C(=O)N2CC3CCC2[C@@H]3N)cc2sc(-c3cc4ccc(-c5ccc6c(c5)C(=O)NC6)cc4n3CC3CC3)c(C)c12 (stereo partly drawn) [Example 120, 6-(2-(6-((7R)-7-Amino-2-azabicyclo[2.2.1]heptane-2-carbonyl)-4-methoxy-3-methylbenzo[b]thiophen-2-yl)-1-(cyclopropylmethyl)-1H-indol-6-yl)isoindolin-1-one] | 250
COc1cc(C(=O)N2CC3CCC2[C@@H]3N)cc2sc(-c3cc4ccc(-c5cccc(O)c5F)cc4n3CC3CC3)c(C)c12 (stereo partly drawn) [Example 121, ((7R)-7-Amino-2-azabicyclo[2.2.1]heptan-2-yl)(2-(1-(cyclopropylmethyl)-6-(2-fluoro-3-hydroxyphenyl)-1H-indol-2-yl)-4-methoxy-3-methylbenzo[b]thiophen-6-yl)methanone] | 1500
COc1cc(C(=O)N2CC3CCC2[C@@H]3N)cc2sc(-c3cc4ccc(-c5ccn6c(C)nnc6c5)cc4n3CC3CC3)c(C)c12 (stereo partly drawn) [Example 122, ((7R)-7-Amino-2-azabicyclo[2.2.1]heptan-2-yl)(2-(1-(cyclopropylmethyl)-6-(3-methyl-[1,2,4]triazolo[4,3-a]pyridin-7-yl)-1H-indol-2-yl)-4-methoxy-3-methylbenzo[b]thiophen-6-yl)methanone] | 68
COc1cc(C(=O)N2CC3CCC2[C@@H]3N)cc2sc(-c3cc4ccc(-c5ccc(C(N)=O)c(Cl)c5)cc4n3CC3CC3)c(C)c12 (stereo partly drawn) [Example 125, 4-(2-(6-((7R)-7-Amino-2-azabicyclo[2.2.1]heptane-2-carbonyl)-4-methoxy-3-methylbenzo[b]thiophen-2-yl)-1-(cyclopropylmethyl)-1H-indol-6-yl)-2-chlorobenzamide] | 413
COc1cc(C(=O)N2CC3CCC2[C@@H]3N)cc2sc(-c3cc4ccc(-c5ccc6c(c5)CNC6=O)cc4n3CC3CC3)c(C)c12 (stereo partly drawn) [Example 126, 5-(2-(6-((7R)-7-Amino-2-azabicyclo[2.2.1]heptane-2-carbonyl)-4-methoxy-3-methylbenzo[b]thiophen-2-yl)-1-(cyclopropylmethyl)-1H-indol-6-yl)isoindolin-1-one] | 122
COc1cc(C(=O)N2CC3CCC2[C@@H]3N)cc2sc(-c3cc4ccc(C)cc4n3CC3CC3)c(C)c12 (stereo partly drawn) [Example 127, ((7R)-7-Amino-2-azabicyclo[2.2.1]heptan-2-yl)(2-(1-(cyclopropylmethyl)-6-methyl-1H-indol-2-yl)-4-methoxy-3-methylbenzo[b]thiophen-6-yl)methanone] | 98
COc1cc(C(=O)N2CC3CCC2[C@@H]3N)cc2sc(-c3cc4ccc(-c5cccc(F)c5C)cc4n3CC3CC3)c(C)c12 (stereo partly drawn) [Example 128, ((7R)-7-Amino-2-azabicyclo[2.2.1]heptan-2-yl)(2-(1-(cyclopropylmethyl)-6-(3-fluoro-2-methylphenyl)-1H-indol-2-yl)-4-methoxy-3-methylbenzo[b]thiophen-6-yl)methanone] | 4340
COc1cc(-c2ccc3cc(-c4sc5cc(C(=O)N6CC7CCC6[C@@H]7N)cc(OC)c5c4C)n(CC4CC4)c3c2)ccn1 (stereo partly drawn) [Example 129, ((7R)-7-Amino-2-azabicyclo[2.2.1]heptan-2-yl)(2-(1-(cyclopropylmethyl)-6-(2-methoxypyridin-4-yl)-1H-indol-2-yl)-4-methoxy-3-methylbenzo[b]thiophen-6-yl)methanone] | 376

Now from value to compound:

IC50 [nM] | Structure (SMILES)
12 | Cc1c(-c2cc3ccc(C(C)(C)O)nc3n2CC2CC2)nn2cc(C(=O)N3CC4CCC3[C@@H]4N)ccc12 (stereo partly drawn) [Example 102, ((7R)-7-Amino-2-azabicyclo[2.2.1]heptan-2-yl)(2-(1-(cyclopropylmethyl)-6-(2-hydroxypropan-2-yl)-1H-pyrrolo[2,3-b]pyridin-2-yl)-3-methylpyrazolo[1,5-a]pyridin-6-yl)methanone]
34 | Cc1c(-c2cc3ccc(C(C)(O)C(F)(F)F)nc3n2CC2CC2)nn2cc(C(=O)N3CC4CCC3[C@@H]4N)ccc12 (stereo partly drawn) [Example 103, ((7R)-7-Amino-2-azabicyclo[2.2.1]heptan-2-yl)(2-(1-(cyclopropylmethyl)-6-(1,1,1-trifluoro-2-hydroxypropan-2-yl)-1H-pyrrolo[2,3-b]pyridin-2-yl)-3-methylpyrazolo[1,5-a]pyridin-6-yl)methanone]
25 | Cc1c(-c2cc3ccc(C(C)O)nc3n2CC2CC2)nn2cc(C(=O)N3CC4CCC3[C@@H]4N)ccc12 (stereo partly drawn) [Example 104, ((7R)-7-Amino-2-azabicyclo[2.2.1]heptan-2-yl)(2-(1-(cyclopropylmethyl)-6-(1-hydroxyethyl)-1H-pyrrolo[2,3-b]pyridin-2-yl)-3-methylpyrazolo[1,5-a]pyridin-6-yl)methanone]
107 | Cc1c(-c2cc3ccc(C(C)(C)O)nc3n2CC2CC2)nn2cc(C(=O)N3C[C@H](N)C[C@@H](F)C3)ccc12 [Example 105, ((3R,5R)-3-Amino-5-fluoropiperidin-1-yl)(2-(1-(cyclopropylmethyl)-6-(2-hydroxypropan-2-yl)-1H-pyrrolo[2,3-b]pyridin-2-yl)-3-methylpyrazolo[1,5-a]pyridin-6-yl)methanone]
907 | Cc1c(-c2cc3ccc(Cl)nc3n2CC2CC2)nn2cc(C(=O)N3CC4CCC3[C@@H]4N)cnc12 (stereo partly drawn) [Example 108, ((7R)-7-Amino-2-azabicyclo[2.2.1]heptan-2-yl)(2-(6-chloro-1-(cyclopropylmethyl)-1H-pyrrolo[2,3-b]pyridin-2-yl)-3-methylpyrazolo[1,5-a]pyrimidin-6-yl)methanone]
292 | Cc1c(-c2cc3ccc(-c4cccc(O)c4F)nc3n2CC2CC2)nn2cc(C(=O)N3CC4CCC3[C@@H]4N)cnc12 (stereo partly drawn) [Example 109, ((7R)-7-Amino-2-azabicyclo[2.2.1]heptan-2-yl)(2-(1-(cyclopropylmethyl)-6-(2-fluoro-3-hydroxyphenyl)-1H-pyrrolo[2,3-b]pyridin-2-yl)-3-methylpyrazolo[1,5-a]pyrimidin-6-yl)methanone]
15000 | Cc1c(-c2cc3ccc(-c4ccc(O)c(F)c4)nc3n2CC2CC2)nn2cc(C(=O)N3CC4CCC3[C@@H]4N)cnc12 (stereo partly drawn) [Example 111, ((7R)-7-Amino-2-azabicyclo[2.2.1]heptan-2-yl)(2-(1-(cyclopropylmethyl)-6-(3-fluoro-4-hydroxyphenyl)-1H-pyrrolo[2,3-b]pyridin-2-yl)-3-methylpyrazolo[1,5-a]pyrimidin-6-yl)methanone]
572 | Cc1c(-c2cc3ccc(-c4ccc(C(N)=O)c(F)c4)nc3n2CC2CC2)nn2cc(C(=O)N3CC4CCC3[C@@H]4N)cnc12 (stereo partly drawn) [Example 112, 4-(2-(6-((7R)-7-Amino-2-azabicyclo[2.2.1]heptane-2-carbonyl)-3-methylpyrazolo[1,5-a]pyrimidin-2-yl)-1-(cyclopropylmethyl)-1H-pyrrolo[2,3-b]pyridin-6-yl)-2-fluorobenzamide]
3980 | COc1nc(C(=O)N2C[C@H](N)C[C@@H](F)C2)cn2nc(-c3cc4ccccc4n3CC3CC3)c(C)c12 [Example 114, ((3R,5R)-3-Amino-5-fluoropiperidin-1-yl)(2-(1-(cyclopropylmethyl)-1H-indol-2-yl)-4-methoxy-3-methylpyrazolo[1,5-a]pyrazin-6-yl)methanone]
3370 | COc1nc(C(=O)N2CC3CCC2[C@@H]3N)cn2nc(-c3cc4cccnc4n3CC3CC3)c(C)c12 (stereo partly drawn) [Example 115, ((7R)-7-Amino-2-azabicyclo[2.2.1]heptan-2-yl)(2-(1-(cyclopropylmethyl)-1H-pyrrolo[2,3-b]pyridin-2-yl)-4-methoxy-3-methylpyrazolo[1,5-a]pyrazin-6-yl)methanone]
